The values that follow come from patent US20120316203A1, “Compositions and Methods for Inhibition of Cancers” (THE OHIO STATE UNIVERSITY RESEARCH FOUNDATION, priority 2009, published 2012).

In one data set the test system is hOSE cells. The data set can be described thus: Cell viability by MTT assay, noncancerous hOSE control cells. The data set is classed as cell-based, human. The method, then:
(§1) Cell viability was determined by a colorimetric assay using MTT. In the mitochondria of living cells, yellow MTT undergoes a reductive conversion to formazan, producing a purple color. Cells, grown to […] confluence in 75-mm flasks, were trypsinized, counted, seeded in 96-well plates with an average population of 7,000 cells per well, incubated overnight, and then treated with curcumin, H-4073, or HO-3867 for 24 hours. All experiments were done using eight replicates and, repeated at least thrice.
(In general: Tetrazolium assays rely on reduction of a dye to a coloured formazan, in cell work by metabolically active cells.)

A short description of data set [1]: Body weight and diet consumption of tumor-bearing animals. Particulars: 25, 50, and 100 ppm in feed, 5 weeks. Type of data set: in vivo. The method, then: Cultured A2780 cancer cells (2×10^6 cells in […] of PBS) were s.c. injected into the back of 6-week-old BALB/c nude mice from the National Cancer Institute. Five to 7 days later, when the tumors reached 3 to 5 mm in diameter, the mice were divided (n=9/group) in a manner to equalize the mean tumor diameter among the groups. The control group was given a normal diet (no treatment), whereas the experimental groups were treated using the DAP compounds mixed with the animal feed (Harlan Teklad) at three different levels (25, 50, and 100 ppm). The doses were chosen based on an initial dose-response study optimized to produce an observable effect on tumor growth. The size of the tumor was measured twice per week using a digital Vernier caliper. The tumor volume was determined from the orthogonal dimensions (d1, d2, d3) using the formula (d1×d2×d3)×π/6. Thirty five days after the beginning of HO-3867 treatment, the mice were sacrificed and the tumors were resected. The tumor tissues were then subjected to immunoblot analysis.
The mice were treated with HO-3867 and the tumor size as measured twice weekly for 5 weeks. […] We also measured the body weight and diet consumption of tumor-bearing animals.

Data set [2] relates to A2780 xenograft tumor tissues. The data set can be described thus: FAS/FAK and VEGF levels in xenograft tumor tissues (immunoblot, immunohistochemistry). Type of data set: in vivo, BALB/c nude mice. The method, then: A2780 cells (5×10^6 cells in 60 μl of PBS) were subcutaneously (s.c.) injected into the back of 6-week-old BALB/c nude mice from the National Cancer Institute. On the 5th day when the tumor size reached approximately 2 to 4 mm, the control groups was supplemented a normal diet (no treatment) while the experimental groups were treated using the DAP compounds mixed with the animal feed ([…]). The doses were chosen based on an initial dose-response study optimized to produce an observable effect on tumor growth. The tumor tissues were then subjected to immunoblotting and immunohistochemistry.
Tumor tissues were fixed in formalin and embedded in paraffin. Sections (6-μm thick) were obtained and used for hematoxylin and eosin staining. For immunofluorescence staining, the tissue sections (8-μm thick) were serially rehydrated in 100%, 95%, and 80% ethanol after deparaffinization with xylene. Slides were kept in steam for 30 min and then washed in PBS (pH 7.4) three times for 5 min each. Tissue sections were incubated with 2% goat serum and 5% bovine serum albumin in PBS to reduce nonspecific binding. The sections were then incubated for 4 h with an anti-mouse anti-FAS, or anti-VEGF. The sections were then incubated with secondary antibodies (1:1000 dilutions) conjugated to horseradish peroxidase (HRP)-labeled sheep anti-mouse IgG or HRP-labeled donkey anti-rabbit IgG (Amersham Pharmacia Biotech). The tissue slides were visualized using a Nikon fluorescence microscope.
For orientation: In western blotting, separated proteins are transferred to a membrane and probed.

In a further data set the test system is A2780 cells. The data set can be described thus: Cell viability by MTT assay, A2780 cells. The data set is classed as cell-based, human. Particulars: 24 hours, dose series. The procedure:
as §1

In data set [3] the test system is STAT3 and apoptotic markers in HSMC. Nature of the data set: Western blot of STAT3 signaling and apoptotic markers in HSMC. Type of data set: cell-based, human. Particulars: 10 μM, 24 h. The procedure: (§2) Cells were grown in RPMI 1640 medium and treated with DMSO (control) or HO-3867 ([…]). Equal volumes of DMSO (0.1% v/v) were present in both groups. After treatment, cell lysates were prepared in nondenaturing lysis buffer (10 mM Tris-HCl (pH 7.4), 150 mM NaCl, 1% Triton X-100, 1 mM EDTA, 1 mM EGTA, 0.3 mM phenylmethylsulfonyl fluoride, 0.2-mM sodium orthovanadate, 0.5% NP-40, 1 lag/ml aprotinin, and 1 lag/ml leupeptin). Cell lysates were centrifuged at 10,000 RPM for 20 min at 4° C., and the supernatant was separated. The protein concentration in the lysates was determined using a Pierce detergent-compatible protein assay kit. For Western blotting, 25 to 50 lag of protein lysate per sample was denatured in 2× sample buffer and subjected to SDS-PAGE on a 10 or 12% Tris-glycine gel. The separated proteins were transferred to a PVDF membrane and then the membrane was blocked with 5% nonfat milk powder (w/v) in 10 mM Tris, 100 mM NaCl, 0.1% Tween 20 for 1 h at room temperature or overnight at 4° C. The membranes were incubated with the primary antibodies described above. The bound antibodies were detected with horseradish peroxidase (HRP)-labeled sheep anti-mouse IgG or HRP-labeled donkey anti-rabbit IgG (Amersham) using an enhanced chemiluminescence detection system (ECL Advanced Kit). Protein expression was determined using Image Gauge version 3.45.

Data set [4] can be described thus: Superoxide radical-scavenging by EPR (xanthine/xanthine oxidase, DEPMPO competition). The settings on record: 100 μM compound versus 1 mM DEPMPO. The procedure: Electron paramagnetic resonance (EPR) spectroscopy was used to quantitatively determine the relative superoxide-scavenging ability of the DAPs in comparison with DEPMPO, a known superoxide scavenger. Superoxide radicals were generated using an aerated solution of PBS (pH 7.4) containing xanthine (0.2 mM), xanthine oxidase (0.02 U/ml), and diethylenetriamine pentaacetic acid (0.1 mM). The superoxide radicals (O2^−) generated by the xanhine-xanthine oxidase reaction were reacted with DEPMPO (1 mM) to form a paramagnetic adduct (DEPMPO-OOH), which was detected using X-band (9.8 GHz) EPR spectroscopy. In separate experimental groups, […], or SOD (500 U/ml) was added to the reaction mixture. […] The generation of the DEPMPO-OOH adduct was measured at 10 min after initiation of the reaction.
Both N-hydroxypyrroline and nitroxide have antioxidant properties including SOD- and catalase-mimetic activity. Therefore, we determined the superoxide radical-scavenging ability of DAPs using a competitive reaction in the presence of DEPMPO. Superoxide radicals were generated using an aerobic solution of xanthine and xanthine oxidase and detected as DEPMPO-OOH adduct by EPR spectroscopy. The DAP compounds (100 μM) were used to compete with 1 mM DEPMPO for the superoxide ions. SOD (4.2 μM) was used as a positive control.

For data set [5], the system named is pSTAT3 (Tyr705 and Ser727), cleaved caspase-3 and PARP in A2780, A549, HepG2, MCF-7, HCT-116 cells. The data set can be described thus: Western blot of STAT3 signaling and apoptotic markers in cancer cells. The data set is classed as cell-based, human. Particulars: 10 μM, 24 h. The procedure:
as §2

Where [6] appears, read: 50 or 100 ppm in feed, dose-dependent.

For `CC1(C)C=C(CN2C/C(=C\c3ccc(F)cc3)C(=O)/C(=C/c3ccc(F)cc3)C2)C(C)(C)N1O` [HO-3867, 1-[(1-oxyl-2,2,5,5-tetramethyl-2,5-dihydro-1H-pyrrol-3-yl)methyl]-(3E,5E)-3,5-bis(4-fluorobenzylidene)piperidin-4-one], in the data set with hOSE cells (20 μmol/L), the “cytotoxicity to hOSE cells” value is recorded as “significant cytotoxicity”. In addition, the “toxicity to noncancerous hOSE cells compared with H-4073” value in the data set with hOSE cells (equivalent doses) is on record as “significantly less toxic”. Also, in the data set with hOSE cells (up to 10 μmol/L), the “cytotoxicity to hOSE cells” value is listed as “no significant cytotoxicity”. Further, in data set [1], the “gross signs of toxicity (body weight, diet consumption)” value is on record as “did not show any gross signs of toxicity”. In data set [2] (setting [6]), the “SREBP1, MMP-2, and VEGF in xenografted tumor tissues” value is “clear down-regulation”; the “expression of FAS and FAK in xenografted tumor tissues” value is “decreased expression”. In data set [2] (mouse, in vivo), the “protein levels of FAS and VEGF by immunocytochemistry in tumor-bearing mice” value is “significantly inhibited”. For the same compound, in the data set on A2780 cells, the “cytotoxicity, viability of A2780 cells” value is reported as “significantly higher toxicity when compared with curcumin”. Moreover, the “activation of STAT3 or apoptotic markers in HSMC” value in data set [3] is “did not induce any significant change”. Further, the “diminution of the DEPMPO-OOH concentration” value in data set [4] is recorded as −50%. Moreover, in data set [5], the “Tyr705 and Ser727 pSTAT3 levels in cancer cells” value is reported as “significantly attenuated”; the “activated caspase-3 and PARP in cancer cells” value was “significant elevation”.
